Measured values published in BindingDB's records for doi:10.1021/jm010087e (The University of Western Australia, 2001).
pKi: −log10 of the molar value.

Experiment: Inhibitory activity against clostridium histolyticum collagenase

Structure (SMILES)	pKi
CC(C(=O)O)N(Cc1ccccc1[N+](=O)[O-])C(=O)NS(=O)(=O)c1ccccc1 (centres undefined) [2-((2-nitrobenzyl){[(phenylsulfonyl)amino]carbonyl}amino)propanoic acid]	5.44
COc1ccc(S(=O)(=O)N(Cc2ccccc2[N+](=O)[O-])C(C)C(=O)NO)cc1 (centres undefined) [2-(N-(2-nitrobenzyl)-4-methoxyphenylsulfonamido)-N-hydroxypropanamide]	7.72
CC(C(=O)NO)N(Cc1ccccc1[N+](=O)[O-])C(=O)Nc1ccc(F)cc1F (centres undefined) [2-[3-(2,4-Difluoro-phenyl)-1-(2-nitro-benzyl)-ureido]-N-hydroxy-propionamide]	7.92
CC(C(=O)O)N(Cc1ccccc1[N+](=O)[O-])C(=O)Nc1ccc(F)cc1F (centres undefined) [2-[3-(2,4-Difluoro-phenyl)-1-(2-nitro-benzyl)-ureido]-propionic acid]	5.19
CC(C(=O)NO)N(Cc1ccccc1[N+](=O)[O-])C(=O)Nc1ccc(Cl)c(Cl)c1 (centres undefined) [2-[3-(3,4-Dichloro-phenyl)-1-(2-nitro-benzyl)-ureido]-N-hydroxy-propionamide]	7.85
CC(C(=O)O)N(Cc1ccccc1[N+](=O)[O-])C(=O)Nc1ccc(Cl)c(Cl)c1 (centres undefined) [2-[3-(3,4-Dichloro-phenyl)-1-(2-nitro-benzyl)-ureido]-propionic acid]	5.28
CC(C(=O)NO)N(Cc1ccccc1[N+](=O)[O-])C(=O)Nc1cccc(Cl)c1 (centres undefined) [2-[3-(3-Chloro-phenyl)-1-(2-nitro-benzyl)-ureido]-N-hydroxy-propionamide]	7.77
CC(C(=O)O)N(Cc1ccccc1[N+](=O)[O-])C(=O)Nc1cccc(Cl)c1 (centres undefined) [2-[3-(3-Chloro-phenyl)-1-(2-nitro-benzyl)-ureido]-propionic acid]	5.18
CC(C(=O)NO)N(Cc1ccccc1[N+](=O)[O-])C(=O)Nc1ccc(Cl)cc1 (centres undefined) [2-[3-(4-Chloro-phenyl)-1-(2-nitro-benzyl)-ureido]-N-hydroxy-propionamide]	7.72
CC(C(=O)O)N(Cc1ccccc1[N+](=O)[O-])C(=O)Nc1ccc(Cl)cc1 (centres undefined) [2-[3-(4-Chloro-phenyl)-1-(2-nitro-benzyl)-ureido]-propionic acid]	5.17
CC(C(=O)NO)N(Cc1ccccc1[N+](=O)[O-])C(=O)Nc1ccc(F)cc1 (centres undefined) [2-[3-(4-Fluoro-phenyl)-1-(2-nitro-benzyl)-ureido]-N-hydroxy-propionamide]	7.82
CC(C(=O)O)N(Cc1ccccc1[N+](=O)[O-])C(=O)Nc1ccc(F)cc1 (centres undefined) [2-[3-(4-Fluoro-phenyl)-1-(2-nitro-benzyl)-ureido]-propionic acid]	5.21
CC(C(=O)NO)N(Cc1ccccc1[N+](=O)[O-])C(=S)NC(=O)c1ccccc1 (centres undefined) [2-[3-Benzoyl-1-(2-nitro-benzyl)-thioureido]-N-hydroxy-propionamide]	8.10
CC(C(=O)O)N(Cc1ccccc1[N+](=O)[O-])C(=S)NC(=O)c1ccccc1 (centres undefined) [2-[3-Benzoyl-1-(2-nitro-benzyl)-thioureido]-propionic acid]	6.15
CC(C(=O)O)N(Cc1ccccc1[N+](=O)[O-])C(=O)Nc1cccc2ccccc12 (centres undefined) [2-[3-Naphthalen-1-yl-1-(2-nitro-benzyl)-ureido]-propionic acid]	5.30
CC(C(=O)NO)N(Cc1ccccc1[N+](=O)[O-])Sc1ccc([N+](=O)[O-])cc1[N+](=O)[O-] (centres undefined) [2-[(2,4-Dinitro-phenylsulfanyl)-(2-nitro-benzyl)-amino]-N-hydroxy-propionamide]	8.05
CC(C(=O)O)N(Cc1ccccc1[N+](=O)[O-])Sc1ccc([N+](=O)[O-])cc1[N+](=O)[O-] (centres undefined) [2-[(2,4-Dinitro-phenylsulfanyl)-(2-nitro-benzyl)-amino]-propionic acid]	5.28

Structure (SMILES)	pKi
CC(C(=O)NO)N(Cc1ccccc1[N+](=O)[O-])S(=O)(=O)c1cc(Cl)ccc1Cl (centres undefined) [2-[(2,5-Dichloro-benzenesulfonyl)-(2-nitro-benzyl)-amino]-N-hydroxy-propionamide]	7.85
CC(C(=O)O)N(Cc1ccccc1[N+](=O)[O-])S(=O)(=O)c1cc(Cl)ccc1Cl (centres undefined) [2-[(2,5-Dichloro-benzenesulfonyl)-(2-nitro-benzyl)-amino]-propionic acid]	5.47
CC(C(=O)O)N(Cc1ccccc1[N+](=O)[O-])S(=O)(=O)c1ccccc1[N+](=O)[O-] (centres undefined) [2-[(2-Nitro-benzenesulfonyl)-(2-nitro-benzyl)-amino]-propionic acid]	5.36
Cc1cc(C)c(S(=O)(=O)N(Cc2ccccc2[N+](=O)[O-])C(C)C(=O)O)c(C)c1 (centres undefined) [2-[(2-Nitro-benzyl)-(2,4,6-trimethyl-benzenesulfonyl)-amino]-propionic acid]	5.22
CC(C(=O)O)N(Cc1ccccc1[N+](=O)[O-])Sc1ccccc1[N+](=O)[O-] (centres undefined) [2-[(2-Nitro-benzyl)-(2-nitro-phenylsulfanyl)-amino]-propionic acid]	5.21
CC(C(=O)O)N(Cc1ccccc1[N+](=O)[O-])S(=O)(=O)c1cccc(C(F)(F)F)c1 (centres undefined) [2-[(2-Nitro-benzyl)-(3-trifluoromethyl-benzenesulfonyl)-amino]-propionic acid]	6.40
CC(C(=O)O)N(Cc1ccccc1[N+](=O)[O-])Sc1ccc([N+](=O)[O-])cc1 (centres undefined) [2-[(2-Nitro-benzyl)-(4-nitro-phenylsulfanyl)-amino]-propionic acid]	5.22
CC(C(=O)O)N(Cc1ccccc1[N+](=O)[O-])S(=O)(=O)C(F)(F)C(F)(F)C(F)(F)C(F)(F)F (centres undefined) [2-[(2-Nitro-benzyl)-(nonafluorobutane-1-sulfonyl)-amino]-propionic acid]	5.68
CC(C(=O)O)N(Cc1ccccc1[N+](=O)[O-])S(=O)(=O)c1cccc2cccnc12 (centres undefined) [2-[(2-Nitro-benzyl)-(quinoline-8-sulfonyl)-amino]-propionic acid]	5.70
CC(C(=O)O)N(Cc1ccccc1[N+](=O)[O-])S(=O)(=O)c1cccs1 (centres undefined) [2-[(2-Nitro-benzyl)-(thiophene-2-sulfonyl)-amino]-propionic acid]	5.70
Cc1ccc(S(=O)(=O)N(Cc2ccccc2[N+](=O)[O-])C(C)C(=O)O)cc1 (centres undefined) [2-[(2-Nitro-benzyl)-(toluene-4-sulfonyl)-amino]-propionic acid]	4.77
CC(C(=O)O)N(Cc1ccccc1[N+](=O)[O-])S(=O)(=O)c1c(F)c(F)c(F)c(F)c1F (centres undefined) [2-[(2-Nitro-benzyl)-pentafluorobenzenesulfonyl-amino]-propionic acid]	6.52
CC(C(=O)O)N(Cc1ccccc1[N+](=O)[O-])S(=O)(=O)Cc1ccccc1 (centres undefined) [2-[(2-Nitro-benzyl)-phenylmethanesulfonyl-amino]-propionic acid]	4.74
CC(C(=O)O)N(Cc1ccccc1[N+](=O)[O-])S(=O)(=O)C(Cl)(Cl)Cl (centres undefined) [2-[(2-Nitro-benzyl)-trichloromethanesulfonyl-amino]-propionic acid]	5.30
CC(C(=O)O)N(Cc1ccccc1[N+](=O)[O-])S(=O)(=O)C(F)(F)F (centres undefined) [2-[(2-Nitro-benzyl)-trifluoromethanesulfonyl-amino]-propionic acid]	5.29
CC(C(=O)NO)N(Cc1ccccc1[N+](=O)[O-])S(=O)(=O)c1cc(Cl)cc(Cl)c1O (centres undefined) [2-[(3,5-Dichloro-2-hydroxy-benzenesulfonyl)-(2-nitro-benzyl)-amino]-N-hydroxy-propionamide]	8.00
CC(C(=O)O)N(Cc1ccccc1[N+](=O)[O-])S(=O)(=O)c1cc(Cl)cc(Cl)c1O (centres undefined) [2-[(3,5-Dichloro-2-hydroxy-benzenesulfonyl)-(2-nitro-benzyl)-amino]-propionic acid]	5.57
